{"source": "patent US20050187288A1", "about": "“Beta-lapachone and methods of treating cancer” (priority 2004, published 2005)", "key": {"PC-3": {"system": "PC-3", "details": "human, 4 h", "description": "(§3) Control plates received the same volume of DMSO alone. After a 4 hour exposure the drug was carefully removed, and drug-free medium could be added. […] Colonies of greater than 50 cells were scored as survivors. Cells were maintained at 37° C. in 5% CO2 in complete humidity."}, "MCF-7": {"system": "MCF-7", "assay": "cells", "details": "Homo sapiens, MCF7, read-out: LC50 (Replicate Results), MCF-7, 4 hour exposure, colonies after 14-21 days", "description": "as §3"}, "PaCa-2": {"system": "PaCa-2", "assay": "cells", "from_the_text": "(§1) Control plates received the same volume of DMSO alone.\n(§2) Control plates receive the same volume of DMSO alone. […] Each “Replicate Result” represents the result of a separate experiment."}, "BxPC-3": {"system": "BxPC-3", "assay": "cells", "details": "Homo sapiens", "from_the_text": "as §1, §2"}, "DU-145": {"system": "DU-145", "details": "human, 4 h", "description": "as §3"}, "[1]": {"assay": "Stability on incubation in human plasma", "type": "in vitro ADME", "details": "incubated in human plasma at 37° C. for 16 hrs; previous studies"}, "[2]": {"assay": "Pharmacokinetics after intravenous infusion in rats, HPBCD formulation", "details": "male, Sprague-Dawley, rat, plasma"}}, "note": "Where two headings read alike, the source gives them in different places."}
{"smiles": "CC1(C)CCC2=C(O1)c1ccccc1C(=O)C2=O", "note": "[β-lapachone, 3,4-dihydro-2,2-dimethyl-2H-naphtho [1,2-b]pyran-5,6-dione]", "values": [{"measurement": "CC50", "setting": "PC-3", "value": 2340, "unit": "nM"}, {"measurement": "CC50", "setting": "MCF-7", "value": 1450, "unit": "nM"}, {"measurement": "CC50", "setting": "PaCa-2; Homo sapiens, PaCa-2, read-out: LC50 (Replicate Results)", "value": 1680, "unit": "nM"}, {"measurement": "CC50", "setting": "PaCa-2; Homo sapiens, PaCa-2, read-out: LC50 (Replicate Results), PaCa-2, 4 hour exposure, colonies after 14-21 days", "value": 1680, "unit": "nM"}, {"measurement": "CC50", "setting": "PaCa-2; human, 4 h", "value": 1520, "unit": "nM"}, {"measurement": "CC50", "setting": "BxPC-3; BXPC-3, read-out: LC50 (Replicate Results)", "value": 1890, "unit": "nM"}, {"measurement": "CC50", "setting": "BxPC-3; BXPC-3, read-out: LC50 (Replicate Results), BxPC-3, 4 hour exposure, colonies after 14-21 days", "value": 1890, "unit": "nM"}, {"measurement": "CC50", "setting": "DU-145", "value": 1210, "unit": "nM"}, {"measurement": "stability in human plasma", "setting": "[1]", "value": "stable to degradation"}, {"measurement": "half-life", "setting": "[2]; intravenous, elimination half-life, one-hour infusion, doses in the range 5-15 mg/kg", "value": "270 to 420", "unit": "min"}, {"measurement": "AUC", "setting": "[2]; iv, 5 mg/kg, 1-Hour Infusion", "value": "1280 ± 118", "unit": "ng·h/mL"}, {"measurement": "AUC", "setting": "[2]; iv, 5 mg/kg, 10-Min. Infusion", "value": "1200 ± 313", "unit": "ng·h/mL"}, {"measurement": "Cmax", "setting": "[2]; iv, 5 mg/kg, 1-Hour Infusion", "value": "363 ± 21", "unit": "ng/mL"}, {"measurement": "Cmax", "setting": "[2]; iv, 5 mg/kg, 10-Min. Infusion", "value": "834 ± 116", "unit": "ng/mL"}, {"measurement": "half-life", "setting": "[2]; iv, 5 mg/kg, T1/2, 1-Hour Infusion", "value": "258 ± 36", "unit": "min"}, {"measurement": "half-life", "setting": "[2]; iv, 5 mg/kg, T1/2, 10-Min. Infusion", "value": "216 ± 54", "unit": "min"}, {"measurement": "Vd", "setting": "[2]; iv, 5 mg/kg, Vdss, 1-Hour Infusion", "value": "19.6 ± 0.8", "unit": "L/kg"}, {"measurement": "Vd", "setting": "[2]; iv, 5 mg/kg, Vdss, 10-Min. Infusion", "value": "20 ± 6.3", "unit": "L/kg"}, {"measurement": "AUC", "setting": "[2]; iv, 10 mg/kg, 1-Hour Infusion", "value": "2640 ± 1020", "unit": "ng·h/mL"}, {"measurement": "Cmax", "setting": "[2]; iv, 10 mg/kg, 1-Hour Infusion", "value": "707 ± 134", "unit": "ng/mL"}, {"measurement": "half-life", "setting": "[2]; iv, 10 mg/kg, T1/2, 1-Hour Infusion", "value": "294 ± 96", "unit": "min"}, {"measurement": "Vd", "setting": "[2]; iv, 10 mg/kg, Vdss, 1-Hour Infusion", "value": "21 ± 5.3", "unit": "L/kg"}, {"measurement": "AUC", "setting": "[2]; iv, 15 mg/kg, 1-Hour Infusion", "value": "4900 ± 54", "unit": "ng·h/mL"}, {"measurement": "Cmax", "setting": "[2]; iv, 15 mg/kg, 1-Hour Infusion", "value": "896 ± 130", "unit": "ng/mL"}, {"measurement": "half-life", "setting": "[2]; iv, 15 mg/kg, T1/2, 1-Hour Infusion", "value": "420 ± 96", "unit": "min"}, {"measurement": "Vd", "setting": "[2]; iv, 15 mg/kg, Vdss, 1-Hour Infusion", "value": "26.4 ± 5.7", "unit": "L/kg"}, {"measurement": "Vd", "setting": "[2]; iv, volume of distribution, intravenous infusion", "value": "20 to 26", "unit": "L/kg"}]}
